According to patent US20040142920A1, “Bipiperidinyl-derivatives and their use as chemokine receptors inhibitors” (priority 2001, published 2004):
Values belong to the compound of their own block, whether it stands above or below them.

Experiments:
Human CCR5 [1] = molecular target: T1, Human CCR5 (Homo sapiens, UniProt P51681); assay: CCR5 functional assay - Ca2+ mobilization in CHO K1 transfectants; type: cell-based; set-up: expressed in transfected cells
Description: b) CCR5 Functional Assay—Ca^2+ Mobilization
These CCR5 transfectants are used for assessing Ca^2+ mobilization in response to stimulation by the CCR5 ligands MIP-1α, MIP-1β, HCC-1(9-74) or RANTES. For the assay the cells are loaded with a Ca^2+-sensitive fluorochrome (Fluo3 or Fluo4). Ligand concentrations between 0.01-100 nM are used to induce Ca^2+ mobilization which is monitored in a fluorometer with appropriate settings.
To assess the activity of the compounds to be tested, a baseline fluorescence reading is taken after which the compounds at the desired concentration are added to the cells and fluorescence is further recorded for a certain time to assess whether compounds show agonistic effects. Next the agonist is added to the mixture and fluorescence monitored. The inhibition of Ca^2+ flux in the presence of the compounds to be tested is calculated from the inhibition of maximal fluorescence induced by the agonist. IC50 values are calculated from dose-response curves obtained with the compounds. […] For example, compounds of Example 1, 18 and 52 have an IC50 of 10, 9 and 4, respectively.

Human CCR5 [2] = molecular target: T1, Human CCR5; assay: CCR5 membrane binding assay (125-I MIP-1α radioligand)
Description: a) CCR5 Membrane Binding Assay
Human CCR5 is used to generate stable transfectants in CHO K1 cells. Membranes prepared from these CCR5 transfectants are used In a radioligand binding assay using 125-I MIP-1α as a ligand and the compounds of formula I are tested for inhibitory activity. The data are reported as IC50, i.e. the concentration of compound required to achieve 50% inhibition of [I-125]MIP-1α binding.

T1 sequence (P51681 whole entry): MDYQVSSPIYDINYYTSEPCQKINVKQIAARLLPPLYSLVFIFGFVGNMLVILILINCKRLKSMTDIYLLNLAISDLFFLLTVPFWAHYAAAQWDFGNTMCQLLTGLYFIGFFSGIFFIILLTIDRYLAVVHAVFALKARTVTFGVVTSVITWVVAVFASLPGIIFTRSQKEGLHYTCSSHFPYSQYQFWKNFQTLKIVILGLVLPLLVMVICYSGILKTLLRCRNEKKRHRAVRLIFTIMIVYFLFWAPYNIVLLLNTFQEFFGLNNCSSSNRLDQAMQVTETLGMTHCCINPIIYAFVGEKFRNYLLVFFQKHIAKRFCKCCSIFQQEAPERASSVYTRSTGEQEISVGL

IC50 (Human CCR5 [1]; CCR5-transfected CHO K1 cells, agonist MIP-1α, MIP-1β, HCC-1(9-74) or RANTES, Fluo3 or Fluo4, read-out: IC50, inhibition of Ca2+ flux): 9 nM
Compound: CC1(N2CCC(N(c3ccccc3)c3ccccc3)CC2)CCN(C(=O)c2c(Cl)c[n+]([O-])cc2Cl)CC1 [Example 18]

Compound: Cc1cccc(C)c1C(=O)N1CCC(C)(N2CCC(N(Cc3ccccc3)c3ccc(Br)cc3)CC2)CC1 [Example 52, {4-[Benzyl-(4-bromo-phenyl)amino]-4′-methyl-[1,4′]bipiperidinyl-1′-yl}-(2,6-dimethyl-phenyl)-methanone]
IC50 (Human CCR5 [1]): 4 nM

Compound: Cc1nc(CN(c2ccccc2)C2CCN(C3(C)CCN(C(=O)c4c(C)cc[n+]([O-])c4C)CC3)CC2)cs1 [Example 83, (2,4-Dimethyl-1-oxy-pyridin-3-yl)-{4′-methyl-4-[(2-methyl-thiazol-4-ylmethyl)-phenyl-amino]-[1,4′]bipiperidinyl-1′-yl}-methanone]
IC50 (Human CCR5 [2]): 2 to 3 nM
